By IC50 is commonly meant the concentration at which inhibition is half-maximal. A low value points to greater potency in that assay.

Here are results for two compounds from US7119256B2, “Gene encoding acetolactate synthase” (priority 2000, dated 2006).

In experiment [1] the test system is mutant ALS protein. Description: Herbicide sensitivity of ALS partially purified from the resistant mutant (acetoin colorimetric ALS activity). Type of experiment: biochemical, rice (Kinmaze). Here is the method:
(§1) First, 200 g or more of resistant mutant was prepared by a liquid culture method (no supplementation with bispyribac-sodium), the culture having a composition as shown in Table 1 but without Gelrite. Then, about 150 g of the resistant mutant was homogenized using Hiscotron in a volume of buffer-1 [100 mM potassium phosphate buffer (pH 7.5) containing 20% (v/v) glycerol, 0.5 mM thiamin pyrophosphate (TPP), 10 μM flavin adenine dinucleotide (FAD), 0.5 mM MgCl2, and a volume of polyvinyl polypyrrolidone one-tenth that of tissue volume] 3-fold greater than tissue volume. The homogenate was filtered through nylon gauze, and then centrifuged at 15,000×g for 20 min. Ammonium sulfate was added to the centrifuged supernatant to 50% saturation, and then allowed to stand in ice for approximately 1 hour. The mixture was again centrifuged at 15,000×g for 20 min, and then the precipitated fraction was dissolved in about 30 ml of buffer-2 [10 mM Tris hydrochloric acid buffer (pH 7.5) containing 20% (v/v) glycerol, 0.5 mM TPP and 0.5 mM MgCl2]. […]
(§2) Next, the protein concentration of the crude enzyme solution was measured by the Bradford method according to the manual of Bio-Rad Protein Assay. […]
(§3) ALS activity resulting from the mutant ALS protein contained in the eluted fractions apportioned into each test tube for apportion was measured as follows. A reaction solution to be used in a measurement reaction was prepared by mixing an eluted fraction to be measured with a solution comprising 20 mM sodium pyruvate, 0.5 mM TPP, 0.5 mM MgCl2, 10 μM FAD and 20 mM potassium phosphate buffer (pH 7.5). […] After the eluted fraction to be measured was added, the measurement reaction was performed at 30° C. for 40 to 60 min. […]
(§4) Then, to quantify acetoin contained in the reaction solution, 1 ml of 0.5% (w/v) creatine and 1 ml of 5% (w/v) α-naphthol dissolved in 2.5 N sodium hydroxide was added to the reaction solution, followed by incubation at 37° C. for 10 min. Acetoin was then quantified by color comparison of the absorbance (at 525 nm) of the reaction solution, thereby evaluating ALS activity. […]

Experiment [2] addresses mutant ALS protein (Oryza sativa subsp. japonica, UniProt Q6K2E8, S627I/W548L). Described as above. The class given is biochemical, rice (Kinmaze). Also noted: from tissue; host or cells: resistant mutant rice (Kinmaze) cultured cells, liquid culture; ammonium sulfate, Sephadex G-25, HiTrap Q. Here is the method: as §1, §2, §3, §4
The target of experiment [3] is T1, wild type ALS protein (Oryza sativa subsp. japonica, UniProt Q6K2E8).
T1 sequence (Q6K2E8 44-644): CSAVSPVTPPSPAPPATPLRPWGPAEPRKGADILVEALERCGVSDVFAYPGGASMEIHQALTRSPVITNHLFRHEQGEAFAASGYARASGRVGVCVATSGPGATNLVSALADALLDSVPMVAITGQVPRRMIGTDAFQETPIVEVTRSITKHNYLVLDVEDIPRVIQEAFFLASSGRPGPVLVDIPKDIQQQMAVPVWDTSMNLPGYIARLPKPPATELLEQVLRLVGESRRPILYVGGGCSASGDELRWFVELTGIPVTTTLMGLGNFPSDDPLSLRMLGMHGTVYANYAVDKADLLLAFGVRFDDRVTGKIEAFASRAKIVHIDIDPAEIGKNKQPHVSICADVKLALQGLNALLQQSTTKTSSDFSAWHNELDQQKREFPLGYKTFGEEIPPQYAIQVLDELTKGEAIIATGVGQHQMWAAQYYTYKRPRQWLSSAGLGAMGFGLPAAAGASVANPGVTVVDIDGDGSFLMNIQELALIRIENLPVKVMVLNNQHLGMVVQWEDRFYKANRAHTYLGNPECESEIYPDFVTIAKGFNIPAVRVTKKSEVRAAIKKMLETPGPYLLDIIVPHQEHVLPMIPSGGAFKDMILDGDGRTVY
Description: Herbicide sensitivity of partially purified wild type ALS protein (acetoin colorimetric ALS activity). The class given is biochemical, rice (Kinmaze). Also noted: the wild type ALS protein was separated and purified in the same manner and used for the experiment; from tissue; host or cells: wild type rice (Kinmaze) cultured cells, liquid culture; ammonium sulfate, Sephadex G-25, HiTrap Q.

The subject of experiment [4] is resistant mutant culture cells. In words: Growth of bispyribac-sodium resistant rice culture cells (resistant mutant) with herbicide (relative wet weight). The class given is cell-based, Oryza sativa var. Kinmaze. On the procedure: Subsequently, the resulting plurality of cell lines were cultured while elevating the concentration of bispyribac-sodium in an orderly manner. […] The bispyribac-sodium resistant culture cells (hereinafter referred to as resistant mutant) were sub-cultured on MS-2,4-D solid media supplemented with 100 μM bispyribac-sodium. Part of the sub-cultured resistant mutant was sampled, added into MS-2,4-D liquid media not supplemented with bispyribac-sodium, and then subjected to suspended cell culture at a cycle of 8 to 10 days.
Approximately 1.5 g (wet weight) of the resistant mutant was transplanted in 200 ml of a Erlenmeyer flask supplemented with 50 ml of a MS-2,4-D liquid medium and bispyribac-sodium at an appropriate concentration, followed by culturing at approximately 27° C. for an appropriate period. The wet weight of the callus was measured periodically. The relative amount of increase was determined based on the wet weight of the transplanted resistant mutant. In addition, the experiment was performed three times with different bispyribac-sodium concentrations, and the standard error was calculated. […] As a control, a similar experiment was conducted using the wild type (Kinmaze).
The growth rates of the wild type and the resistant mutant were measured as described above except for the use of chlorsulfuron instead of bispyribac-sodium.

Sequence of mutant ALS protein (Oryza sativa subsp. japonica, UniProt Q6K2E8, S627I/W548L) (Q6K2E8 44-644 W548L/S627I): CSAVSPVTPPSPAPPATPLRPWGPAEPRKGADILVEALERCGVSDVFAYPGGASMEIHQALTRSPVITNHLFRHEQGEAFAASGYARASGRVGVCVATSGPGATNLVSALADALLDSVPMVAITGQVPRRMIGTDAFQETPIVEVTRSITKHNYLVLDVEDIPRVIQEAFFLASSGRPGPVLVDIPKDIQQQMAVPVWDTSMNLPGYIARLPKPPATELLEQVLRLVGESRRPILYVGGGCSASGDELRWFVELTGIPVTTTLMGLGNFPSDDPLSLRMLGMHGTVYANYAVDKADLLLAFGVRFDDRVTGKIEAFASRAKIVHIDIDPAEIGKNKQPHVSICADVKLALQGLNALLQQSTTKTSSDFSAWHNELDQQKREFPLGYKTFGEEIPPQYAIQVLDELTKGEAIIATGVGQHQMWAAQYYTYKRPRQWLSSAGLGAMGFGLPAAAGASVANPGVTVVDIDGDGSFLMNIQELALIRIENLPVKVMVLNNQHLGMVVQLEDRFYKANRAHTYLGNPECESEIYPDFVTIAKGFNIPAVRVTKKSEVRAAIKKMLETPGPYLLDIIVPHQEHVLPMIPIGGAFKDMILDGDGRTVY

For the compound `COc1cc(OC)nc(Oc2cccc(Oc3nc(OC)cc(OC)n3)c2C(=O)[O-])n1.[Na+]` [Bispyribac-sodium, bispyribac-sodium], the “RS ratio Resistant mutant: I50 (resistant mutant)/I50 (wild type)” value in experiment [1] came out at 74.8. Moreover, the IC50 in experiment [2] came out at 421 nM; in experiment [3] it was 5.63 nM. Further, the “growth of the resistant mutant (relative weight on day 8)” value in experiment [4] (10 μM bispyribac-sodium) was “almost none of the growth of the resistant mutant was affected”. The “proliferation of resistant cell lines in the presence of herbicide” value in experiment [4] (100 μM bispyribac-sodium) was “can proliferate”.

With `COc1nc(C)nc(NC(=O)NS(=O)(=O)c2ccccc2Cl)n1` [Chlorsulfuron, chlorsulfuron], in experiment [1], the “RS ratio Resistant mutant: I50 (resistant mutant)/I50 (wild type)” value came out at 5.36. The IC50 was found to be 92.8 nM in experiment [2] and 17.3 nM in experiment [3]. The “growth of the resistant mutant (relative weight on day 9)” value in experiment [4] (1 μM chlorsulfuron) is “strongly inhibited”.
